{"source": "patent US11167277B2", "about": "“Cu(I)-catalyzed azide-alkyne cycloadditions (CuAAC) ligands and methods for carrying out Cu(I)-catalyzed azide-alkyne cycloaddition reactions” (UNIVERSITY OF PITTSBURGH-OF THE COMMONWEALTH SYSTEM OF …, priority 2014, dated 2021)", "origin": "cited, not measured here", "tested_on": "Zebrafish embryos", "settings": "co-treatment with 1 mM CuSO4, 1.5 mM sodium ascorbate and 0.1 mM TBTA; toxicity attributed to copper(I)"}
{"smiles": "c1ccc(Cn2cc(CN(Cc3cn(Cc4ccccc4)nn3)Cc3cn(Cc4ccccc4)nn3)nn2)cc1", "note": "[TBTA]", "values": [{"measurement": "time beyond which Zebrafish embryos do not survive", "result": "≤ 15", "unit": "min"}]}
